Reference: patent US20250338851A1, “Boosted IPBC for Wet-State Bacterial Control” (Troy Technology II, Inc., priority 2021, published 2025)
Values joined by “and” are separate entries in the source; they are usually repeats but may differ in a detail not shown here. Equal entries are not always repeated. Where two headings read alike, the source gives them in different places. Residues, ends and D or L forms follow the SMILES beside them. *: point of attachment. βNA = c1ccc2cc(N*)ccc2c1

What was measured:
Type in all cases: cell-based
E. aerogenes ATCC #13048 = assay: Minimum inhibitory concentration testing (microbroth dilution) and synergy index; conditions: 96 well microbroth dilution, MHB, 24 hours of incubation
Procedure: (§1) MICs were determined via microbroth dilution using the following specific test parameters:
(§2) Biocide dilutions were performed in 2-fold increments for each assay.
(§3) Synergy index (SI) scores were calculated according to the mass action equation below: […]
(§4) S.I.[MIC[A]in-blend/MIC[A]alone]+[MIC[B]in-blend/MIC[B]alone]
(§5) Combinations of ingredients were determined to be synergistic (S.I.<0.5), additive (S.I.>0.5 to 1), indifferent (S.I.>1 to <2) or antagonistic (S.I.>2), as defined by EUCAST guidelines. See European Committee for Antimicrobial Susceptibility Testing (EUCAST) of the European Society of Clinical Microbiology and Infectious Diseases (ESCMID). EUCAST Definitive Document E.Def 1.2, May 2000: Terminology relating to methods for the determination of susceptibility of bacteria to antimicrobial agents, Clin. Microbiol. Infect. Off Publ. Eur. Soc. Clin. Microbiol. Infect. Dis. […] Microbiol.

E. coli ATCC #11229 = assay: as above; conditions: 96 well microbroth dilution, MHB, 24 hours of incubation
Procedure: as §1, §2, §3, §4, §5

[1] = test system: Microbacterium sp. Troy JZ13; assay: as above; conditions: 96 well microbroth dilution, MHB, 24 hours of incubation
Procedure: as §1, §2, §3, §4, §5

[2] = test system: P. aeruginosa ATCC #10145; assay: as above
Procedure: as §1, §2, §3, §4, §5

[3] = test system: Pseudomonas sp. Troy JZ103; assay: as above; conditions: 96 well microbroth dilution, MHB, 24 hours of incubation
Procedure: as §1, §2, §3, §4, §5

S. aureus ATCC #6538 = assay: as above; conditions: 96 well microbroth dilution, MHB, 24 hours of incubation
Procedure: as §1, §2, §3, §4, §5

Bacillus sp. Troy JZ14 = assay: as above; conditions: 96 well microbroth dilution, MHB, 24 hours of incubation
Procedure: as §1
(§6) Necessary organism dilutions via OD600 were calculated based on OD600 of 1.0 being equivalent to 8×10^8 CFU/mL. Biocide dilutions were performed in 2-fold increments for each assay.
as §3, §4
(§7) Combinations of ingredients were determined to be synergistic (S.I.<0.5), additive (S.I.>0.5 to 1), indifferent (S.I.>1 to <2) or antagonistic (S.I.>2), as defined by EUCAST guidelines. See European Committee for Antimicrobial Susceptibility Testing (EUCAST) of the European Society of Clinical Microbiology and Infectious Diseases (ESCMID). EUCAST Definitive Document E.Def 1.2, May 2000: Terminology relating to methods for the determination of susceptibility of bacteria to antimicrobial agents, Clin. Microbiol. Infect. Off Publ. Eur. Soc. Clin. Microbiol. Infect. Dis. 6, 503-508 (2000); Helander I. M., Mattila-Sandholm T., Fluorometric assessment of gram-negative bacterial permeabilization, J. Appl. Microbiol. 88:213-219 (2000).

[4] = test system: Burkholderia sp. Troy JZ2; assay: as above
Procedure: as §1, §6, §3, §4, §7

[5] = test system: Pseudomonas aeruginosa (ATCC #10145); assay: Kill curve; conditions: for Kill curve CFU/mL: 0.2%
Procedure: Overnight cultures of Pseudomonas aeruginosa (ATCC #10145) growing in Tryptic Soy Broth were diluted to OD600=0.7 in Mueller Hinton Broth containing the indicated level of test compound. Samples containing IPBC were dosed with Polyphase PW40 (40% IPBC). Samples containing ZnO were dosed from a 50% ZnO dispersion (“1678-54”). Time points were collected by adding 1 mL of the sample into 9 mL of Dey-Engley Neutralizing Broth and performing a serial dilution in 1× Butterfield's Phosphate Buffer. Counts were obtained from pour plates in Tryptic Soy Agar after overnight incubation at 35° C.

[6] = test system: bacterial consortium: Alcaligenes faecalis (ATCC #25094), Enterobacter aerogenes (ATCC #13048), Escherichia coli (ATCC #11229), Pseudomonas aeruginosa (ATCC …); assay: Bacterial challenge testing (standard); conditions: for Improvement in the bacterial resistance of paint containing IPBC/ZnO: paint challenge testing (Table A9)
Procedure: Bacterial and fungal challenge testing was performed following Troy's standard challenge test procedure SOP MI-07. […] Where indicated, additional bacterial organisms were added to the inoculum such that each organism in the inoculum provided equal CFU. […] Fungal consortia were prepared on Malt Agar slants and diluted to 10^6 spores/mL using a hemocytometer to count before use. Each mixture was prepared shortly before each inoculation. Inoculations were performed by adding 0.5 mL to 50 g of the indicated test sample, giving either ˜10^6 CFU/g of bacteria or ˜10^4 spores/g of fungi per challenge. Viability readings were performed at the indicated intervals following each challenge by applying a small amount of the test sample onto PCA (for bacteria) or Malt Agar (for fungus). Bacterial plates were then incubated at 32° C. for 3-5 days, and Malt Agar plates were incubated for 1 week at 28° C. before reading. Viability plates were evaluated with a semi-quantitative scale. This scale estimates the approximate CFU/g by visual assessment of the colony density along the streak lines. Readings are recorded as the average of two duplicate semi-quantitative readings from “0” to “4.” Samples were mixed before every viability reading and after every inoculation.
(§8) Challenge test scoring was done by the weighted sum of squares for each of the twelve data points collected for each test sample. The weighting was done proportional to the streak day, with day 1 weighted at 10%, day 2 weighted at 20%, and day 3 weighted at 70%. The sum of all 12 values is then taken and divided by the score of the unprotected sample to achieve the total growth score. The reported “weighted performance” score is 1 minus the growth score.

[7] = test system: bacterial consortium: Alcaligenes faecalis, Enterobacter aerogenes, Escherichia coli, Pseudomonas aeruginosa, Staphylococcus aureus, Microbacterium …; assay: Bacterial challenge testing (industrial strength)
From the text: Where industrial strength inoculations are indicated, bacterial challenge testing organisms were Alcaligenes faecalis (ATCC #25094), Enterobacter aerogenes (ATCC #13048), Escherichia coli (ATCC #11229), Pseudomonas aeruginosa (ATCC #10145), Staphylococcus aureus (ATCC #6538), Microbacterium paraoxydans (Troy Isolate), Burkholderia cenocepacia (Troy Isolate), Citrobacter werkmanii (Troy Isolate), and Acinetobacter sp. (Troy Isolate). All bacteria were blended from separate overnight cultures grown in Tryptic Soy Broth (TSB) and mixed at equal CFU via OD600 measurements, then diluted to OD600=7 (˜10^9 CFU/mL) to create the final bacterial consortium. Each mixture was prepared shortly before each inoculation. Inoculations were performed by adding […] to 50 g of the indicated test sample to give ˜10^7 CFU/g per inoculation. Viability readings were performed at the indicated intervals following each challenge by applying a small amount of the test sample onto PCA. Plates were then incubated at 32° C. for 3-5 days before being evaluated with a semi-quantitative scale. This scale estimates the approximate CFU/g by visual assessment of the colony density along the streak lines. Readings are recorded as the average of two duplicate semi-quantitative readings from “0” to “4.” Samples were mixed before every viability reading and after every inoculation.
as §8

[8] = test system: Pseudomonas aeruginosa (ATCC #10145); assay: NPN uptake assay (membrane permeability); conditions: 1% w/v solutions
Procedure: The NPN uptake assay was performed roughly as previously described. See Helander I. M., Mattila-Sandholm T., Fluorometric assessment of gram-negative bacterial permeabilization, J. Appl. Microbiol. […] Next, the cells were centrifuged (10,000 g, 5 minutes) washed twice with assay buffer (5 mM HEPES-KOH, 5 mM glucose, pH 7.2) and resuspended in assay buffer to OD600=1. 100 microliters of washed cells in assay buffer was then mixed with 100 microliters of assay buffer containing 20 μM NPN in a 96-well optical bottom black plate (Thermo). Two microliters of the test substances were then added, briefly mixed, and then placed in a plate reader to monitor fluorescence (excitation 350 nm, emission 420 nm) at one minute intervals for 10 minutes. Controls containing no cells or water-only were included in the assay. NPN uptake was calculated using the formula below at each time point and averaged over all time-points and three replicates.

[9] = test system: Pseudomonas aeruginosa (ATCC #10145); assay: Growth curves (OD600)
Procedure: To generate growth curves, overnight cultures of Pseudomonas aeruginosa (ATCC #10145) from Plate Count Agar were lifted and resuspended in dH2O and adjusted to OD600=0.01 with sterile Mueller Hinton Broth (MHB). This culture was distributed into wells of an uncovered 96-well plate with the indicated biocides. The OD600 was then measured initially and then every 30′ for 16 hours at 37° C. with constant double orbital shaking. Due to the opacity of the samples dosed with some test compounds, the curves were generated by background subtracting from wells containing sterile MHB and then subtracted from their initial (t=0) measurement.

[10] = test system: Pseudomonas aeruginosa (ATCC #10145); assay: Checkerboard assay; conditions: alone, 100-500 ppm; 24 hours of incubation
Procedure: The checkerboard assay was performed by separately dosing Polyphase PW40 (40% IPBC) and a 20% nanoparticle ZnO dispersion (Sigma #721077) into 100 microliters of Mueller Hinton Broth containing ˜1.0*10^5 CFU/mL of Pseudomonas aeruginosa (ATCC #10145). The plate was then incubated overnight at 37° C. with constant double orbital shaking. The next day, the dispersions were allowed to settle on the bench for 2 hours and the plate was photographed. Growth in this assay was defined as the turbidity of the supernatant.

[11] = Klebsiella aerogenes, ATCC13048, read-out: MIC
[12] = Escherichia coli, ATCC11229, read-out: MIC
[13] = Pseudomonas aeruginosa, ATCC10145, 24 h
[14] = Staphylococcus aureus, ATCC6538, read-out: MIC
[15] = Joint Compound, lowest concentration free of detectable bacterial growth 7 days following the 4th inoculation
[16] = Interior Paint #1, lowest concentration free of detectable bacterial growth 7 days following the 4th inoculation
[17] = 96 well microbroth dilution, MHB, 24 hours of incubation
[18] = control, without PAβN (FIG. 1C)

CCCCC(O)CO (stereo not drawn) [1,2-hexanediol]
MIC (E. aerogenes ATCC #13048; [11]): 10000 µg/mL
MIC (E. coli ATCC #11229; [12]): 6000 µg/mL
MIC ([1]; read-out: MIC): 6000 µg/mL
MIC [2, 13]: 6000 µg/mL
MIC ([3]; Pseudomonas, read-out: MIC): 5000 µg/mL
MIC (S. aureus ATCC #6538; [14]): 24000 µg/mL
MIC (Bacillus sp. Troy JZ14; Bacillus, read-out: MIC): 10000 µg/mL
MIC ([4]; Burkholderia, 24 h): 5000 µg/mL
Killing of Pseudomonas (kill curve) ([5]; 1,2-hexanediol added to IPBC/ZnO (FIG. 5)): fully capable of killing Pseudomonas
Pass Level [6, 15]: 1.2 % w/w
Pass Level (ppm a.i.) [6, 15]: 11,880 ppm a.i.
Pass Level [7, 16]: Not Effective
Pass Level (ppm a.i.) [7, 16]: > 12,000 ppm a.i.

CCCCCCOCCOCCO [Hexyl Carbitol]
MIC (E. coli ATCC #11229): 11857 ppm
MIC [1]: 1482 ppm
MIC [2, 17]: 11856 ppm
MIC [3]: 5929 ppm
MIC (S. aureus ATCC #6538): 11857 ppm
MIC (Bacillus sp. Troy JZ14): 4447 ppm
MIC [4, 17]: 1853 ppm
Membrane disruption potential against Pseudomonas (NPN assay) [8]: highest membrane disruption potential
Improvement in the bacterial resistance of paint containing IPBC/ZnO [6]: highly similar performance as 1,2-hexanediol

CCCCCCOCCO [Hexyl Cellosolve]
Membrane disruption potential against Pseudomonas (NPN assay) [8]: highest membrane disruption potential

CCCCNC(=O)OCC#CI [IPBC, 3-iodoprop-2-yn-1-yl butylcarbamate]
Pseudomonas growth ([9]; 400 ppm IPBC (0.1% w/w Polyphase PW40) with ≥0.25 mM PAβN, 16 hours): complete growth inhibition
Pseudomonas growth ([9]; 400 ppm alone, 16 hours): growth
Pseudomonas growth ([9]; IPBC with PAβN in the presence of 1 mM MgCl2): weaker IPBC potentiation
Pseudomonas growth [9, 18]: no Pseudomonas inhibition
MIC (E. aerogenes ATCC #13048; [11]): 1000 µg/mL
MIC (E. coli ATCC #11229; [12]): 2400 µg/mL
MIC ([1]; read-out: MIC): 11 µg/mL
MIC [2, 13]: ≥ 400 µg/mL
MIC ([3]; Pseudomonas, read-out: MIC): 300 µg/mL
MIC (S. aureus ATCC #6538; [14]): 450 µg/mL
MIC (Bacillus sp. Troy JZ14; Bacillus, read-out: MIC): 9 µg/mL
MIC ([4]; Burkholderia, 24 h): 63 µg/mL
Turbidity of wells (growth) [10]: turbid
Kill curve CFU/mL ([5]; 0 hrs): 5.40E+06 CFU/mL and 7.00E+06 CFU/mL
Kill curve CFU/mL ([5]; 2 hrs): 7.10E+06 CFU/mL and 7.30E+06 CFU/mL
Kill curve CFU/mL ([5]; 24 hrs): 1.33E+10 CFU/mL and 1.45E+10 CFU/mL
Kill curve CFU/mL ([5]; 48 hrs): 4.90E+09 CFU/mL and 3.80E+09 CFU/mL

[Cl-].[Cl-].[Mg+2] [MgCl2]
Pseudomonas growth [9, 18]: no Pseudomonas inhibition

N=C(N)NCCC[C@H](NC(=O)[C@@H](N)Cc1ccccc1)C(=O)Nc1ccc2ccccc2c1 [PAβN, phenylalanine-arginine beta-napthylamide] (H-Phe-Arg-βNA)
Impact on Pseudomonas growth ([9]; 0.125-0.5 mM PAβN alone, 16 hours at 37° C.): minimal impact

CC(C)C(=O)OCC(C)(C)C(O)C(C)C (stereo not drawn) [Texanol]
Membrane disruption potential against Pseudomonas (NPN assay) [8]: highest membrane disruption potential

CC(=O)OCC(COC(C)=O)OC(C)=O [Triacetin]
Improvement in the bacterial resistance of paint containing IPBC/ZnO [6]: some improvement

[O]=[Zn] [ZnO, zinc oxide]
MIC (E. aerogenes ATCC #13048): 2400 ppm
MIC (E. coli ATCC #11229): 2400 ppm
MIC [1]: 3206 ppm
MIC [2, 17]: ≥2400 ppm
MIC [3]: 3400 ppm
MIC (S. aureus ATCC #6538): 250 ppm
MIC (Bacillus sp. Troy JZ14): 3212 ppm
MIC [4, 17]: 2000 ppm
Kill curve CFU/mL ([5]; 0 hrs): 5.40E+06 CFU/mL and 7.00E+06 CFU/mL
Kill curve CFU/mL ([5]; 2 hrs): 7.10E+06 CFU/mL and 7.30E+06 CFU/mL
Kill curve CFU/mL ([5]; 24 hrs): 1.33E+10 CFU/mL and 1.45E+10 CFU/mL
Kill curve CFU/mL ([5]; 48 hrs): 4.90E+09 CFU/mL and 3.80E+09 CFU/mL
Kill of the inoculum ([7]; paint, 2.5% w/w (10,000 ppm), 7 days after challenge): complete kill
